Results: US20150165029A1, “THERAPEUTIC COMPOSITIONS” (CUBIST PHARMACEUTICALS, INC., priority 2005, published 2015)
Like-named read-outs stand apart in the source and are kept apart here.

Experiments:
[1] = rat, in vivo; cited from earlier work
[2] = rat, in vivo
Method: (§1) Male Sprague Dawley rats weighing approximately 250 g with free access to water were fasted overnight. These rats were anesthetized with 40 mg/kg pentobarbital via jugular vein catheter. The small intestine was exposed by a ventral midline incision. A small incision was made into the duodenum and a #9el capsule was inserted into the lumen of the small intestine. The duodenum and the midline incisions were sutured closed. The rats regained consciousness in 30-90 minutes. Blood samples were taken from the jugular vein catheter at 0, 15, 30 and 60 minutes and 2, 3, 4 and 6 hours. Food was returned at 1 hour post surgery. Blood samples were collected in heparinized tubes and subsequently centrifuged. The plasma was stored at −20 C in heparinized tubes. The rats regained consciousness in 30-90 minutes. After the 6 hr blood sample, the rat was euthanized and a necropsy was performed to determine accuracy and integrity of the surgery. The duodenum was examined for blockage, leakage and any evidence of inflammation or irritation at the site of the capsule implantation.

[3] = Rat intraduodenal capsule model, % bioavailability; conditions: for Drug plus enhancer % BA: 4:1 (enhancer:drug), ceftriaxone/carrageenan complex+Laureth-12, daptomycin carrageenan complex+Ceteth-15, CMPD 1+Ceteth-15, cidofovir, meropenem, caspofungin+Ceteth-12; for bioavailability: male, Sprague Dawley, rat, plasma
Method: as §1

[4] = without any absorption enhancer; cited from earlier work
[5] = Rat intraduodenal capsule model, Cmax with different enhancers (Example 6); conditions: ID in rats, Cmax normalized to 40 mg/Kg
Method: Male Sprague Dawley rats weighing approximately 250 g with free access to water were fasted overnight. These rats were anesthetized with 40 mg/kg pentobarbital via jugular vein catheter. The small intestine was exposed by a ventral midline incision. A small incision was made into the duodenum and a #9el capsule was inserted into the lumen of the small intestine. The duodenum and the midline incisions were sutured closed. The rats regained consciousness in 30-90 minutes. Blood samples were taken from the jugular vein catheter at 0, 15, 30 and 60 minutes and 2, 3, 4 and 6 hours. Food was returned at 1 hour post surgery. Blood samples were collected in heparinized tubes and subsequently centrifuged. The plasma was stored at −20 C in heparinized tubes. […] After the 6 hr blood sample, the rat was euthanized and a necropsy was performed to determine accuracy and integrity of the surgery. The duodenum was examined for blockage, leakage and any evidence of inflammation or irritation at the site of the capsule implantation.
In each instance, the compositions were administered ID in 3 rats, unless otherwise indicated.

Row | Compound | Drug plus enhancer % BA ([3]; ID, rats) | bioavailability [3] [%] | % bioavailability [2] | also measured
1 | CCCCCCCCCC(=O)N[C@@H](Cc1c[nH]c2ccccc12)C(=O)N[C@H](CC(N)=O)C(=O)N[C@@H](CC(=O)O)C(=O)N[C@@H]1C(=O)NCC(=O)N[C@@H](CCCN)C(=O)N[C@@H](CC(=O)O)C(=O)N[C@H](C)C(=O)N[C@@H](CC(=O)O)C(=O)NCC(=O)N[C@H](CO)C(=O)N[C@@H]([C@H](C)CC(=O)O)C(=O)N[C@@H](CC(=O)c2ccccc2N)C(=O)O[C@@H]1C [Daptomycin, daptomycin, reference compound] |  |  |  | oral bioavailability of drug only (footnote) [1]: poor oral bioavailability; Drug plus enhancer % BA [2]: 44^2%
2 | CC[C@H](C)C[C@H](C)CCCCCCCCC(=O)N[C@H]1C[C@@H](O)[C@@H](NCCN)NC(=O)[C@@H]2[C@@H](O)CCN2C(=O)[C@H]([C@H](O)CCN)NC(=O)[C@H]([C@H](O)[C@@H](O)c2ccc(O)cc2)NC(=O)[C@@H]2C[C@@H](O)CN2C(=O)[C@H]([C@@H](C)O)NC1=O [Caspofungin, caspofungin] | <5% | < 1 |  | 
3 | Laureth-9 |  |  | 60 (19) % | 
4 | CO/N=C(\C(=O)N[C@@H]1C(=O)N2C(C(=O)O)=C(CSc3nc(=O)c(=O)[nH]n3C)CS[C@H]12)c1csc(N)n1 [Ceftriaxone, ceftriaxone] | 83^2% |  |  | oral bioavailability [4]: 0-5%; Drug only % BA ([3]; without POE alkyl ether enhancer, ID, rats): 2%
5 | CN(/N=C/C1=C(C(=O)O)N2C(=O)C(NC(=O)/C(=N\OCF)c3nsc(N)n3)[C@H]2SC1)C(=N)N1CCNCC1 (stereo partly shown) [CMPD 1, 7-(((5-amino-1,2,4-thiadiazol-3-yl)-(Z)-(fluoromethoxyimino)acetyl)amino)-3(E)-((imino-1-piperazinylmethyl)-methylhydrazono)methyl-3-cephem-4-carboxylic acid] | 30% |  |  | Cmax Mean (±SD) ([5]; enhancer Capmul C10, enhancer:drug 4:1): 7 (7) μg/mL; Cmax Mean (±SD) ([5]; enhancer Gelmul 90, enhancer:drug 4:1): 13 (8) μg/mL; Cmax Mean (±SD) ([5]; enhancer Laureth-12, enhancer:drug 4:1): 22 (4) μg/mL; Cmax Mean (±SD) ([5]; enhancer Sodium Laurate, enhancer:drug 4:1): 7 (1) μg/mL
6 | C[C@@H](O)[C@H]1C(=O)N2C(C(=O)O)=C(S[C@@H]3CN[C@H](C(=O)N(C)C)C3)[C@H](C)[C@H]12 [Meropenem, meropenem] | 28% | 1 |  | 
7 | Beheneth-20 |  |  | 7 (5) % | 
8 | Laureth-23 |  |  | 10 (4) % | 
9 | Nc1ccn(C[C@@H](CO)OCP(=O)(O)O)c(=O)n1 [Cidofovir, cidofovir] | 44% | 2 |  | 
